From ChEMBL document CHEMBL1133999, “3-Deoxy-3-substituted-D-myo-inositol imidazolyl ether lipid phosphates and carbonate as inhibitors of the phosphatidylinositol 3-kinase pathway and cancer cell growth” (Bioorg Med Chem Lett, 2001)

Columns and labels:
[1] = test system: MCF7; experiment: Inhibition of MCF-7 (breast) cancer cell proliferation; type: functional, cell-based; conditions: Homo sapiens
[2] = molecular target: Serine/threonine-protein kinase AKT (Homo sapiens, UniProt P31751+Q9Y243+P31749); experiment: Inhibition of Akt (proto-oncogenic serine/threonine) kinase; type: protein assay
[3] = molecular target: PI3-kinase p110-alpha/p85-alpha (Homo sapiens, UniProt P42336); experiment: Inhibition of […]/p85 PI3-kinase (phosphatidylinositol 3-kinase); type: protein-complex assay
[4] = test system: HT-29; experiment: Inhibition of human colon carcinoma (HT-29) cell proliferation; type: functional, cell-based
[5] = test system: NIH3T3; experiment: Inhibition of NIH3T3 cell proliferation; type: functional, cell-based; conditions: Mus musculus
[6] = Partition coefficient (logP); type: physicochemical; conditions: octanol/water

Sequence of PI3-kinase p110-alpha/p85-alpha (P27986 whole entry): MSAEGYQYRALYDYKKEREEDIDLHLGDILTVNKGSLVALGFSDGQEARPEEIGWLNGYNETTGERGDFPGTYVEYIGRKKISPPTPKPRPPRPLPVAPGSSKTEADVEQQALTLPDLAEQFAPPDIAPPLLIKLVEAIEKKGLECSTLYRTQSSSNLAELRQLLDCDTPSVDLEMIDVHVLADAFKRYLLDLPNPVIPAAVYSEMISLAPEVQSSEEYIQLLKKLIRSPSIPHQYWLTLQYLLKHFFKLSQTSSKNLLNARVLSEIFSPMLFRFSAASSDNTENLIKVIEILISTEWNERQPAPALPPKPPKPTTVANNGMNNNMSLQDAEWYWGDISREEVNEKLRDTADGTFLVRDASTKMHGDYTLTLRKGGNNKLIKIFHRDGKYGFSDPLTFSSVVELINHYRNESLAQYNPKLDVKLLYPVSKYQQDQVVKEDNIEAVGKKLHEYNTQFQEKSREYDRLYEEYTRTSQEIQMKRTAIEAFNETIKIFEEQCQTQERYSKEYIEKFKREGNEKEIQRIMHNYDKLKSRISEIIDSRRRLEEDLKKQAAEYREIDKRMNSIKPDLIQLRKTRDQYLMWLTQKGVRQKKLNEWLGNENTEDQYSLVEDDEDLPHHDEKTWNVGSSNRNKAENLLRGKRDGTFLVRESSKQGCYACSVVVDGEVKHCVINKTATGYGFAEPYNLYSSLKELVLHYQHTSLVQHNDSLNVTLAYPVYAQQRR
Sequence of PI3-kinase p110-alpha/p85-alpha (P42336 whole entry): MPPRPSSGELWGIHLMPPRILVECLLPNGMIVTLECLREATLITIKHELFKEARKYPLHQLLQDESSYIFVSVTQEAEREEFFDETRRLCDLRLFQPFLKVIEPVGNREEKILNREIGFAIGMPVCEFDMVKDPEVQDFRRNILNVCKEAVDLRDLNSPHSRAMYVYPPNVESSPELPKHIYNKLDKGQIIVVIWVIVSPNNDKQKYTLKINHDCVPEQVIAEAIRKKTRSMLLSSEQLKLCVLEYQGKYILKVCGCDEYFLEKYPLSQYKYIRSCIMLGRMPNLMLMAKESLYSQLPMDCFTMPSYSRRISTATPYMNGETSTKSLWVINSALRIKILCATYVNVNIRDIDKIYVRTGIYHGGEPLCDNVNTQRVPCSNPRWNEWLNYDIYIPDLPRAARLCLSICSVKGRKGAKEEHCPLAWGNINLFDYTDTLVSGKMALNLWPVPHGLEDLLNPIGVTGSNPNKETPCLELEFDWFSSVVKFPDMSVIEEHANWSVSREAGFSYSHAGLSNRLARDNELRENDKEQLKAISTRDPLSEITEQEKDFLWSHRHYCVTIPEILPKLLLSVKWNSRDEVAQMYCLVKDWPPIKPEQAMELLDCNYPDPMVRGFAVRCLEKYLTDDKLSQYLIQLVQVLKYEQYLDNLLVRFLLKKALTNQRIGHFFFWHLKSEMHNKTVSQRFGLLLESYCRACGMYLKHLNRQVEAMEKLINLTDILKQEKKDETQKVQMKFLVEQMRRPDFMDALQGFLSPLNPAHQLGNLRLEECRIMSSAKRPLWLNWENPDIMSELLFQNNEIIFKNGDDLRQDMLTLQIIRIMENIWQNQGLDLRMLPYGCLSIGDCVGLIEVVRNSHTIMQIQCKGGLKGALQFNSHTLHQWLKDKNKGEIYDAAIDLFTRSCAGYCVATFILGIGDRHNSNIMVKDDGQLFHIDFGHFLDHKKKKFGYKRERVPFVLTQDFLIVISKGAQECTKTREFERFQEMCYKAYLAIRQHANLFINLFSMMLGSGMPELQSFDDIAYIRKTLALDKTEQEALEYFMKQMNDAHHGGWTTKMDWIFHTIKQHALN

For `CCCCCCCCCCCCCCCCCCOC[C@H](COP(=O)(O)OC1[C@@H](O)[C@@H](O)[C@H](O)[C@H](CO)[C@H]1O)OC` (single isomer, unassigned), the IC50 [1] was 5 µM, the IC50 [2] was 7.8 µM and the IC50 [3] was 31 µM. It also gave an IC50 [4] of 4.5 µM and an IC50 [5] of 2 µM.
`CCCCCCCCCCCCCCCCCCOC[C@H](COP(=O)(O)OC1[C@H](O)C[C@@H](O)[C@H](O)[C@@H]1O)OC` (single isomer, unassigned) gave a logP [6] of 4.44, an IC50 [3] of 14.8 µM and an IC50 [5] of 4.5 µM.
`CCCCCCCCCCCCCCCCCCOC[C@H](COP(=O)(O)OC1[C@@H](O)[C@@H](O)[C@H](O)[C@H](CO)[C@H]1O)n1ccnc1` (single isomer, unassigned) showed an IC50 [1] of 2 µM, an IC50 [2] of 20.5 µM and a logP [6] of 3.22. It also gave an IC50 [3] of 7.9 µM, an IC50 [4] of 6.5 µM and an IC50 [5] of 8.2 µM.
Work on `CCCCCCCCCCCCCCCCCCOC[C@H](COP(=O)(O)OC1[C@H](O)C[C@@H](O)[C@H](O)[C@@H]1O)n1ccnc1` (single isomer, unassigned) yielded an IC50 [1] of 6 µM, an IC50 [2] of 37.5 µM and an IC50 [3] of 14.5 µM. It also gave an IC50 [4] of 15 µM and an IC50 [5] of 6.5 µM.
Work on `CCCCCCCCCCCCCCCCCCOC[C@H](COC(=O)OC1[C@@H](O)[C@@H](O)[C@H](O)[C@H](CO)[C@H]1O)OC` (single isomer, unassigned) yielded an IC50 [1] of 1.25 µM, an IC50 [2] of 5 µM and an IC50 [3] of 83 µM. The IC50 [4] was 10 µM and the IC50 [5] was 2 µM.
`CCCCCCCCCCCCCCCCCCOC[C@H](COC(=O)OC1[C@@H](O)[C@@H](O)[C@H](O)[C@H](CO)[C@@H]1O)n1ccnc1` (single isomer, unassigned) gave an IC50 [1] of 20 µM, an IC50 [2] of 15 µM and an IC50 [3] of 49.5 µM. For the same molecule, the IC50 [4] was 15 µM and the IC50 [5] was 11.5 µM.
